Results published in patent publication US11072612B2, “NLRP3 modulators” (INNATE TUMOR IMMUNITY, INC., priority 2016, dated 2021).

Experiments:
Type in all cases: cell-based
hNLRP3 = target: T1, hNLRP3 (Homo sapiens, UniProt Q96P20); assay: hNLRP3 agonist assay: IL-1β production in PMA-differentiated THP-1 cells (ELISA); conditions: Table 2, 4 hours, IL-1β by ELISA
T1 construct: THP-1 cells were purchased from the American Type Culture Collection; host or cells: THP-1 cells, PMA-differentiated
Method: THP-1 cells were purchased from the American Type Culture Collection and sub-cultured according to instructions from the supplier. Prior to experiments, cells were cultured in RPMI 1640 containing 10% heat inactivated FBS, penicillin (100 units/ml) and streptomycin (100 μg/ml), and maintained in log phase prior to experimental setup. Prior to the experiment THP-1 were treated with PMA (Phorbol 12-myristate 13-acetate) (10 μg/ml) for 24 hours. The day of the experiment the media was removed and attaching cells were treated with trypsin for 2 minutes, cells were then collected, washed with PBS (phosphate buffer saline), spin down, resuspended in 2% heat inactivated FBS with RPMI at a concentration of 1×10^6 cells/ml, and 100 μl was plated in a 96 well plate. Cells were incubated with compounds for 4 hours. Cell free supernatant was collected and the production of IL-1β was evaluated by ELISA. Compounds were dissolved in dimethyl sulfoxide (DMSO) and added to the culture medium to achieve desired concentration (e.g. 100, 30, 10, 3, 1, 0.3 or 0.1 μM). A vehicle only control was run concurrently with each experiment. Final DMSO concentration was 1%.

TLR8 = target: T2, TLR8 (Homo sapiens, UniProt Q9NR97); assay: TLR8 EC50 assay; conditions: Table 2
T2 sequence (Q9NR97 27-1041): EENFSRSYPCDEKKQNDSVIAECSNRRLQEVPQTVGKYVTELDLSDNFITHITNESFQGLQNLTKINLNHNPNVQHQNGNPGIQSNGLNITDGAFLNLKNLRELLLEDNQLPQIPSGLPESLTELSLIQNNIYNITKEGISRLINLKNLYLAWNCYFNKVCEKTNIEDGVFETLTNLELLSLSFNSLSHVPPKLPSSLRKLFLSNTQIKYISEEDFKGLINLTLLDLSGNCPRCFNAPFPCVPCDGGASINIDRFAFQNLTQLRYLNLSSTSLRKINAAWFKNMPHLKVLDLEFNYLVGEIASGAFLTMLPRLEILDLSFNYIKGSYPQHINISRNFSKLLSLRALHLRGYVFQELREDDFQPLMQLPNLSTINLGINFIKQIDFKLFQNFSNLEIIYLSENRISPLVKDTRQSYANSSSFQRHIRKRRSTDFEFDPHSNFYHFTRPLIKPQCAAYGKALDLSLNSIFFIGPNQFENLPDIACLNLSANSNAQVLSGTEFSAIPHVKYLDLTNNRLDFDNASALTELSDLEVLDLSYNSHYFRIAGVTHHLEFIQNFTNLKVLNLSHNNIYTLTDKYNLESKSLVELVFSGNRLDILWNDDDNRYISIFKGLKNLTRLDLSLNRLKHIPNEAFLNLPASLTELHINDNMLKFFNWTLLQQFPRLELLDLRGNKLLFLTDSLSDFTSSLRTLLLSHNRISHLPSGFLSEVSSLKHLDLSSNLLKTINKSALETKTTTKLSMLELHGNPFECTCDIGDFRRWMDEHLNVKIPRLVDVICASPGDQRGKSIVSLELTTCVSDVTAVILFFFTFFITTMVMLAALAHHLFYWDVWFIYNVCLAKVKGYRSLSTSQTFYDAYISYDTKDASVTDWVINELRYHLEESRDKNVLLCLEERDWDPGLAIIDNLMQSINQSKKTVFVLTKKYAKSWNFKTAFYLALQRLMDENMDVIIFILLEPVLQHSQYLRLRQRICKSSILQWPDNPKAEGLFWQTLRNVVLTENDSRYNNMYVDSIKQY

TLR7 = target: T3, TLR7 (Homo sapiens, UniProt Q9NYK1); assay: TLR7 EC50 assay; conditions: Table 2
T3 sequence (Q9NYK1 27-1049): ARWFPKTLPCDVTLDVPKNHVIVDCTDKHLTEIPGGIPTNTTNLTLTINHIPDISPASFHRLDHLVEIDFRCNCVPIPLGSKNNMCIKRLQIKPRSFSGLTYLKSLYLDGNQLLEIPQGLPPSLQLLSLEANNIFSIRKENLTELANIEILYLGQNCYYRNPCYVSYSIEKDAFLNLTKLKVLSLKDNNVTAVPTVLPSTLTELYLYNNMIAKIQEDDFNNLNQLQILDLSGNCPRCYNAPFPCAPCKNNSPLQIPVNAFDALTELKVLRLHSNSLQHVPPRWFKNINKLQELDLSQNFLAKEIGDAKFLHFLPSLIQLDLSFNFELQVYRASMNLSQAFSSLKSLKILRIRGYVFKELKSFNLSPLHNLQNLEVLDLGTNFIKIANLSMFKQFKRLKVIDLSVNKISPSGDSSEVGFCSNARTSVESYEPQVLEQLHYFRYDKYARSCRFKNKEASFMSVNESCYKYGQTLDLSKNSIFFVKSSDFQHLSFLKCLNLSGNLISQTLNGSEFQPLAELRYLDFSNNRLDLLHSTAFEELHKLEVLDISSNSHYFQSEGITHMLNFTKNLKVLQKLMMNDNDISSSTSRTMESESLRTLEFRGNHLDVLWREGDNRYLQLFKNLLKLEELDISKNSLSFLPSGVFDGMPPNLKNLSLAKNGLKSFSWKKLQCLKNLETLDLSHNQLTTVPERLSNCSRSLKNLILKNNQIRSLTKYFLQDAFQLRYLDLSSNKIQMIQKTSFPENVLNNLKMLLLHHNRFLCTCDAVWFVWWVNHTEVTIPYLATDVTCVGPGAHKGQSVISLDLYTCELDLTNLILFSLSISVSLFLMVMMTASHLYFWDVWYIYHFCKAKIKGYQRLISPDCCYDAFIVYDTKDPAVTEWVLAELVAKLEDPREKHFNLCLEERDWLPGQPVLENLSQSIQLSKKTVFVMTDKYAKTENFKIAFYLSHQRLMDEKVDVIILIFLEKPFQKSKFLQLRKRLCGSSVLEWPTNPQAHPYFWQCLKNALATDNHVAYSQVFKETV

T1 sequence (Q96P20 whole entry): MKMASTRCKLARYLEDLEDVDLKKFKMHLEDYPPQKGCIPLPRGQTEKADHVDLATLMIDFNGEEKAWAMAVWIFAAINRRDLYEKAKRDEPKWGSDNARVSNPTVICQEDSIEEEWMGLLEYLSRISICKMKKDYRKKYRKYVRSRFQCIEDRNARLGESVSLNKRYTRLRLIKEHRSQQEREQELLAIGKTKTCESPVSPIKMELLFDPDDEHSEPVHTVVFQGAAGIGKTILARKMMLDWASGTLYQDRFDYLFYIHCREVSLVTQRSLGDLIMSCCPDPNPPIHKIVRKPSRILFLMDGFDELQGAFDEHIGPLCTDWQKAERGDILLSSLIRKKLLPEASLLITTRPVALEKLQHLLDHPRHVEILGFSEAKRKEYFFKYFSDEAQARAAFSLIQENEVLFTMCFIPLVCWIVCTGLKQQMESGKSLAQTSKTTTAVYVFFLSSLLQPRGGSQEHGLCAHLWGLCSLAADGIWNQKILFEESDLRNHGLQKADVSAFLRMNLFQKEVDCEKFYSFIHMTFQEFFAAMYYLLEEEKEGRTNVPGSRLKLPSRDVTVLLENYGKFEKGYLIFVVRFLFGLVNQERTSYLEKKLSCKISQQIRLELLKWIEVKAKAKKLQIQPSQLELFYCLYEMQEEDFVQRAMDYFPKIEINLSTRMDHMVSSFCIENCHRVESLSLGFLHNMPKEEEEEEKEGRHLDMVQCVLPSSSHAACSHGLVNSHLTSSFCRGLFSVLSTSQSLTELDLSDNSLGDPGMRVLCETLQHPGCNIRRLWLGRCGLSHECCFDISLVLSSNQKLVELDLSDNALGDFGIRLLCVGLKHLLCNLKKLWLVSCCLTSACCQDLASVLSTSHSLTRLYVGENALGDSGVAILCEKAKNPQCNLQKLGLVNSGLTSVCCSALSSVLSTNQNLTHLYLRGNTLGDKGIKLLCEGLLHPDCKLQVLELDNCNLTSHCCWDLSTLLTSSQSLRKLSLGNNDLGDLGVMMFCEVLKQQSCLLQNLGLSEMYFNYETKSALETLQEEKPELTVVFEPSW

Compound | EC50 (hNLRP3) | EC50 (TLR8) | EC50 (TLR7)
Nc1nc2cc(-c3ccccc3)ccc2c2[nH]c(CCCO)nc12 [Compound 145, 3-(4-amino-7-phenyl-1H-imidazo[4,5-c]quinolin-2-yl)propan-1-ol] | ≤ 1 µM | > 100 µM | > 100 µM
Nc1nc2cc(-c3cccnc3)ccc2c2[nH]c(CCCOCc3ccccc3)nc12 [Compound 146, 2-(3-phenylmethoxypropyl)-7-pyridin-3-yl-1H-imidazo[4,5-c]quinolin-4-amine] | 20 to 100 µM | > 100 µM | > 100 µM
Nc1nc2cc(-c3cccnc3)ccc2c2[nH]c(CCCO)nc12 [Compound 147, 3-(4-amino-7-pyridin-3-yl-1H-imidazo[4,5-c]quinolin-2-yl)propan-1-ol] | 1 to 20 µM | > 100 µM | > 100 µM
Nc1nc2cc(-c3ccncc3)ccc2c2[nH]c(CCCOCc3ccccc3)nc12 [Compound 148, 2-(3-phenylmethoxypropyl)-7-pyridin-4-yl-1H-imidazo[4,5-c]quinolin-4-amine] | 20 to 100 µM | > 100 µM | > 100 µM
Cc1cc(-c2ccc3c(c2)nc(N)c2nc(CCCOCc4ccccc4)[nH]c23)n(C)n1 [Compound 150, 7-(2,5-dimethylpyrazol-3-yl)-2-(3-phenylmethoxypropyl)-1H-imidazo[4,5-c]quinolin-4-amine] | > 100 µM | > 100 µM | > 100 µM
CCCn1cc(-c2ccc3c(c2)nc(N)c2nc(CCCOCc4ccccc4)[nH]c23)cn1 [Compound 152, 2-(3-phenylmethoxypropyl)-7-(1-propylpyrazol-4-yl)-1H-imidazo[4,5-c]quinolin-4-amine] | 20 to 100 µM | > 100 µM | > 100 µM
CCCn1cc(-c2ccc3c(c2)nc(N)c2nc(CCCO)[nH]c23)cn1 [Compound 153, 3-[4-amino-7-(1-propylpyrazol-4-yl)-1H-imidazo[4,5-c]quinolin-2-yl]propan-1-ol] | 1 to 20 µM | > 100 µM | > 100 µM
Cc1ncc(-c2ccc3c(c2)nc(N)c2nc(CCCOCc4ccccc4)[nH]c23)cn1 [Compound 154, 7-(2-methylpyrimidin-5-yl)-2-(3-phenylmethoxypropyl)-1H-imidazo[4,5-c]quinolin-4-amine] | 1 to 20 µM | > 100 µM | > 100 µM
CN(C)c1ncc(-c2ccc3c(c2)nc(N)c2nc(CCCO)[nH]c23)cn1 [Compound 156, 3-[4-amino-7-[2-(dimethylamino)pyrimidin-5-yl]-1H-imidazo[4,5-c]quinolin-2-yl]propan-1-ol] | > 100 µM | > 100 µM | > 100 µM
Nc1nc2cc(-c3cccnc3F)ccc2c2[nH]c(CCCOCc3ccccc3)nc12 [Compound 157, 7-(2-fluoropyridin-3-yl)-2-(3-phenylmethoxypropyl)-1H-imidazo[4,5-c]quinolin-4-amine] | > 100 µM | > 100 µM | > 100 µM
Nc1nc2cc(-c3cccnc3F)ccc2c2[nH]c(CCCO)nc12 [Compound 158, 3-[4-amino-7-(2-fluoropyridin-3-yl)-1H-imidazo[4,5-c]quinolin-2-yl]propan-1-ol] | 1 to 20 µM | > 100 µM | > 100 µM
Nc1nc2cc(Oc3ccccc3)ccc2c2[nH]c(CCCO)nc12 [Compound 163, 3-(4-amino-7-phenoxy-1H-imidazo[4,5-c]quinolin-2-yl)propan-1-ol] | 20 to 100 µM | > 100 µM | > 100 µM

Other lines, results leading:

EC50 (hNLRP3) | EC50 (TLR8) | EC50 (TLR7) | Compound
1 to 20 µM | > 100 µM | > 100 µM | Nc1nc2cc(-c3ccncc3)ccc2c2[nH]c(CCCO)nc12 [Compound 149]
1 to 20 µM | > 100 µM | > 100 µM | Cc1cc(-c2ccc3c(c2)nc(N)c2nc(CCCO)[nH]c23)n(C)n1 [Compound 151, 3-[4-amino-7-(2,5-dimethylpyrazol-3-yl)-1H-imidazo[4,5-c]quinolin-2-yl]propan-1-ol]
1 to 20 µM | > 100 µM | > 100 µM | Cc1ncc(-c2ccc3c(c2)nc(N)c2nc(CCCO)[nH]c23)cn1 [Compound 155, 3-[4-amino-7-(2-methylpyrimidin-5-yl)-1H-imidazo[4,5-c]quinolin-2-yl]propan-1-ol]
1 to 20 µM | > 100 µM | 20 to 100 µM | CC(C)c1ccc2c(c1)nc(N)c1nc(CCCO)[nH]c12 [Compound 159, 3-(4-amino-7-propan-2-yl-1H-imidazo[4,5-c]quinolin-2-yl)propan-1-ol]
≤ 1 µM | > 100 µM | 20 to 100 µM | CCCc1ccc2c(c1)nc(N)c1nc(CCCO)[nH]c12 [Compound 160, 3-(4-amino-7-propyl-1H-imidazo[4,5-c]quinolin-2-yl)propan-1-ol]
≤ 1 µM | > 100 µM | > 100 µM | Nc1nc2cc(C3CCCC3)ccc2c2[nH]c(CCCO)nc12 [Compound 161, 3-(4-amino-7-cyclopentyl-1H-imidazo[4,5-c]quinolin-2-yl)propan-1-ol]
1 to 20 µM | 20 to 100 µM | 20 to 100 µM | CCc1ccc2c(c1)nc(N)c1nc(CCCO)[nH]c12 [Compound 162, 3-(4-amino-7-ethyl-1H-imidazo[4,5-c]quinolin-2-yl)propan-1-ol]
20 to 100 µM | 20 to 100 µM | 20 to 100 µM | Nc1nc2cc(Cl)ccc2c2[nH]c(CCCO)nc12 [Compound 165, 3-(4-amino-7-chloro-1H-imidazo[4,5-c]quinolin-2-yl)propan-1-ol]
> 100 µM | > 100 µM | > 100 µM | Nc1nc2cc(N3CCCC3)ccc2c2[nH]c(CCCO)nc12 [Compound 166, 3-(4-amino-7-pyrrolidin-1-yl-1H-imidazo[4,5-c]quinolin-2-yl)propan-1-ol]
> 100 µM | > 100 µM | > 100 µM | Nc1nc2cc(N3CCCCC3)ccc2c2[nH]c(CCCO)nc12 [Compound 167, 3-(4-amino-7-piperidin-1-yl-1H-imidazo[4,5-c]quinolin-2-yl)propan-1-ol]
